{"source": "paper PMC6222672", "about": "“Pharmacokinetic and Metabolism Studies of 12-Riboside-Pseudoginsengenin DQ by UPLC-MS/MS and UPLC-QTOF-MS^E” (Molecules : A Journal of Synthetic Chemistry and Natural …, 2018)", "key": {"A549 cells": {"test_system": "A549 cells", "test": "MTT cell viability test, A549 cells", "assay_type": "cell-based", "conditions": "1-200 μM, 44 h", "description": "(§1) Antitumor activity test of RPDQ in vitro by using S180, SPC-A-1 and A549 cells\n(§2) Since the startmaterial for the semi-synthesis of 12-Riboside-pseudoginsengenin DQ (RPDQ) was pseudoginsengenin DQ (PDQ), the antitumor activities of RPDQ […]\n(§3) and PDQ were both tested.\n(§4) The SPC-A-1 and S180 tumor cell lines were purchased from Wuhan Procell Life Science & Technology Co,.Ltd. A549 tumor cell lines were purchased from iCell Bioscience Inc (Shanghai) Biological Co., Ltd.\n(§5) 2. Experimental procedure\n(§6) S180 cells (1 × 10^5 cells/mL) were seeded into a 96-well plate. After 24 h, pretreated with various concentrations of RPDQ or PDQ (1-200 μM) for 44 h at 37℃, and the cells were treated with MTT for 4 h. The formazan crystal product in the cells were dissolved with acid isopropanol. The absorbance was measured at 570 nm with a […]\n(§7) SPC-A-1/A549 cells(1×10^5 cells/mL) were seeded into a 96-well plate. After 24 h, pretreated with various concentrations of RPDQ or PDQ (1-200 μM) for 44 h at 37℃ , and the cells were treated with MTT for 4 h. […] The absorbance was measured at 490 nm with a […]\n(§8) Cell viability was calculated by the following formula: Cell viability (%)= 1-{(ODcontrolgroup-ODtreatedgroup)/ODcontrol group×100%}.\n(§9) All data were processed by statistical software SPSS 17.0. The data were expressed as Mean ± Standard Deviation. The differences between groups were analyzed by one-way analysis of variance. […]"}, "[1]": {"assay_type": "in vitro ADME", "conditions": "rat", "description": "RPDQ and 20R-panaxadiol stock methanol solutions (1.00 mg/mL) were all prepared with the reference compounds, respectively. Firstly, blank rat plasma was prepared. The blood samples were collected immediately from the abdominal aorta and incubated at 37 °C for 30 min. The plasma was separated by centrifugation at 4000 rpm for 15 min, and was frozen at −20 °C until analysis. By spiking the dilute solutions with blank rat plasma, calibration curves were plotted to produce the points equivalent to 5, 10, 25, 50, 100, 300, 500, and 1000 ng/mL for RPDQ. […] All the QC and calibration standards samples were prepared freshly before analysis. The specificity, linearity, LLOQ, precision and accuracy, extraction recovery, matrix effect, diluted reliability, and stability of the method were validated by following a non-clinical drug pharmacokinetic study technical guideline (China Food And Drug Administration 2014) and the Bioanalytical Method Validation Guideline (Chinese Pharmacopoeia 2015, Vol. 4). Specificity was assessed by comparing blank plasma samples, plasma was spiked with RPDQ and 20R-panaxadiol, and plasma samples were collected after administration. Linearity was analyzed through weighted regression (1/x^2) of peak area ratios (y) of RPDQ to 20R-panaxadiol versus nominal concentration (x) in plasma. […] The intra- and inter-day precision and accuracy were evaluated with the analysis of six replicate QC samples on three consecutive days, respectively. The extraction recovery and matrix effect at three QC concentrations were assayed. By comparing peak areas of RPDQ and 20R-panaxadiol in extracted QC samples with those in post-extracted blank plasma samples, the recoveries were calculated. Moreover, by comparing the peak area of samples spiked after extraction with that of the neat solution’s equivalent concentration, the matrix effect was then evaluated. Stability was evaluated by analyzing replicate QC samples, which were stored at −20 °C for two weeks at room temperature for 4 h, and experienced three freeze/thaw cycles (from −20 °C to room temperature) on consecutive days. The stabilities of RPDQ in stock solutions at 15 °C and stored in plastic autosampler vials for 16 h at 10 °C were also assessed. Five-fold higher concentrations of QC were achieved by adding moderate RPDQ to blank plasma. The samples were then diluted and analyzed with undiluted calibration standards. The accuracy and precision were within acceptable limits (± 15%)."}, "S180 cells": {"test_system": "S180 cells", "test": "MTT cell viability test, S180 cells", "assay_type": "cell-based", "conditions": "1-200 μM, 44 h", "description": "as §1, §2, §3, §4, §5, §6, §7, §8, §9"}}, "note": "“Also recorded” adds a separate entry of the source. Read-outs that look alike come from different tables or passages of the source."}
{"smiles": "CC(C)(O)[C@@H]1CC[C@@](C)([C@H]2CC[C@]3(C)[C@@H]2[C@H](O[C@@H]2O[C@H](CO)[C@@H](O)[C@H]2O)C[C@@H]2[C@@]4(C)CC[C@H](O)C(C)(C)[C@@H]4CC[C@]23C)O1", "note": "[RPDQ, 20S, 24S-12-O-β-D-ribofuranosyl-dammar-20, 24-epoxy-3β, 12β, 25-triol]", "values": [{"measurement": "anticancer / anti-proliferation effect", "setting": "A549 cells", "value": "good anti-proliferation effects; also recorded: significant anticancer activity"}, {"measurement": "Mean concentration", "setting": "[1]; 15 ng/mL", "value": "14.96 ± 0.58", "unit": "ng/mL"}, {"measurement": "Mean concentration", "setting": "[1]; 200 ng/mL", "value": "188.7 ± 16.57", "unit": "ng/mL"}, {"measurement": "Mean concentration", "setting": "[1]; 800 ng/mL", "value": "785.21 ± 19.19", "unit": "ng/mL"}, {"measurement": "Accuracy", "setting": "[1]; 3 freeze-thaw cycles, 800 ng/mL", "value": "−1.85", "unit": "%"}, {"measurement": "Accuracy", "setting": "[1]; 3 freeze/thaw cycles, 15 ng/mL", "value": "−0.03", "unit": "%"}, {"measurement": "Accuracy", "setting": "[1]; 3 freeze/thaw cycles, 200 ng/mL", "value": "−5.65", "unit": "%"}, {"measurement": "Accuracy", "setting": "[1]; 4 h, 15 ng/mL", "value": "−1.00", "unit": "%"}, {"measurement": "Mean concentration", "setting": "[1]; 4 h, 15 ng/mL", "value": "14.85 ± 0.72", "unit": "ng/mL"}, {"measurement": "Accuracy", "setting": "[1]; 4 h, 200 ng/mL", "value": "−5.94", "unit": "%"}, {"measurement": "Mean concentration", "setting": "[1]; 4 h, 200 ng/mL", "value": "188.12 ± 14.00", "unit": "ng/mL"}, {"measurement": "Accuracy", "setting": "[1]; 4 h, 800 ng/mL", "value": "−3.25", "unit": "%"}, {"measurement": "Mean concentration", "setting": "[1]; 4 h, 800 ng/mL", "value": "773.99 ± 26.01", "unit": "ng/mL"}, {"measurement": "Accuracy", "setting": "[1]; 16 h, 15 ng/mL", "value": 2.2, "unit": "%"}, {"measurement": "Mean concentration", "setting": "[1]; 16 h, 15 ng/mL", "value": "15.33 ± 1.61", "unit": "ng/mL"}, {"measurement": "Accuracy", "setting": "[1]; 16 h, 200 ng/mL", "value": "−6.52", "unit": "%"}, {"measurement": "Mean concentration", "setting": "[1]; 16 h, 200 ng/mL", "value": "186.96 ± 13.41", "unit": "ng/mL"}, {"measurement": "Accuracy", "setting": "[1]; 16 h, 800 ng/mL", "value": 2.03, "unit": "%"}, {"measurement": "Mean concentration", "setting": "[1]; 16 h, 800 ng/mL", "value": "816.23 ± 15.82", "unit": "ng/mL"}, {"measurement": "Accuracy", "setting": "[1]; 14 d, 15 ng/mL", "value": 2.74, "unit": "%"}, {"measurement": "Mean concentration", "setting": "[1]; 14 d, 15 ng/mL", "value": "15.41 ± 1.47", "unit": "ng/mL"}, {"measurement": "Accuracy", "setting": "[1]; 14 d, 200 ng/mL", "value": "−10.47", "unit": "%"}, {"measurement": "Mean concentration", "setting": "[1]; 14 d, 200 ng/mL", "value": "179.07 ± 14.73", "unit": "ng/mL"}, {"measurement": "Accuracy", "setting": "[1]; 14 d, 800 ng/mL", "value": "−1.71", "unit": "%"}, {"measurement": "Mean concentration", "setting": "[1]; 14 d, 800 ng/mL", "value": "786.32 ± 19.88", "unit": "ng/mL"}, {"measurement": "anticancer / anti-proliferation effect", "setting": "S180 cells", "value": "good anti-proliferation effects; also recorded: significant anticancer activity"}]}
